According to article PMC2570486, “The Recently Identified P2Y-Like Receptor GPR17 Is a Sensor of Brain Damage and a New Target for Brain Repair” (PLoS ONE, 2008):
Blank lines part the entries; values can stand above or below the compound they belong to.

Experiments:
mGPR17 = molecular target: T1, mGPR17 (Mus musculus, UniProt Q6NS65); assay: [35S]GTPγS binding in membranes of 1321N1 cells transfected with pcDNA3.1-Gpr17m; format: biochemical; conditions: for EC50: membranes of 1321N1 cells expressing mouse GPR17, mean±SEM of three experiments, read-out: EC50, stimulation of [35S]GTPγS binding
T1 construct: contains a 1020 base pairs open reading frame (ORF) that encodes for a putative 339 amino acid protein; expressed in transfected cells; host or cells: 1321N1 human astrocytoma cells (transient, calcium phosphate); membranes
Description: The pharmacological profile of mGPR17 was then assessed. Since stimulation of GPCRs results in increased binding of GTP to G proteins (which can, in turn, be quantified by measuring [^35S]GTPγS binding to purified membranes; see [13]), GPR17 activation in the heterologous system was determined by testing the increase of [^35S]GTPγS binding by exogenously-added agonists in membranes from transfected cells, [14], [15]. […] The ability of some known purinergic and cysLT antagonists to counteract agonist-induced GTPγS binding stimulation in cells expressing mGPR17 was also assessed.
Figure 1 Effect of purinergic and leukotriene ligands on mGPR17 with [^35S]GTPγS binding. Membrane aliquots (10 µg), obtained from 1321N1 cells transfected with pcDNA3.1-Gpr17m (A,B), were incubated with the indicated concentrations of purinergic (A) or leukotriene (B) agonists. […] (D) Effect of P2Y or CysLT receptor antagonist on agonist-stimulated [^35S]GTPγS binding. […] All data are expressed as percentage of basal [^35S]GTPγS binding (set to 100%) and represent the mean±SEM of three different experiments each performed in duplicate.
Human astrocytoma cells 1321N1 cells were cultured as described. For [^35S]GTPγS, 10^6 1321N1 cells were seeded on 75 cm^2 flasks and transfected by the calcium phosphate precipitation method.
Control and transfected 1321N1 cells were homogenized in 5 mM TRIS-HCl, 2 mM EDTA, pH 7.4 and centrifuged at 48000 g for 15 min at 4°C. The resulting plasma membranes were suspended in binding buffer and used in [^35S]GTPγS binding assay as previously described.
For [^35S]GTPγS binding data analysis and graphic presentation, a non-linear multipurpose curve-fitting program Graph-Pad Prism was used and the EC50 values were derived. Data are reported as mean±SEM of three different experiments (performed in duplicate).

[1] = tested on: GPR17+ oligodendrocyte precursors in primary cortical cultures; assay: Oligodendrocyte precursor maturation in primary mixed neuronal/glial cortical cultures (immunostaining, cell counts); format: cell-based, rat; conditions: 72 h
Description: Figure 4 Presence and activation of GPR17 in oligodendrocyte precursor cells of primary cortical cultures maintained in vitro. […] Micrographs (A–H) show their phenotype characterization. […] Colocalization of GPR17 with these markers is shown in yellow-orange cells. […] In blue, Hoechst 33258 stained nuclei. Single cell RT-PCR was used to confirm expression of GPR17 in oligodendroglial-like cells (I). For this analysis, cells were picked up from living cultures using cell morphology as a guide at the light microscope. Left micrograph: an example of a brightfield showing cells (arrows) with oligodendrocyte morphology. These cells can be distinguished from neurons based on their size (approximately 1/3 the size of neurons), phase-dark cell bodies and presence of fine ramifications. The oligodendrocyte nature of cells with this morphology was confirmed by co-immunostaining for O4 and GPR17 at a subsequent time after culture fixing (arrows in right micrograph). By following this method, one living cell or a small number of cells (up to 10) were sucked from living cultures (see MATERIALS AND METHODS) and processed for RT-PCR analysis. […] Rat cortex was utilized as a positive control (see last lane). Scale bars: 15 µm. […] (K) Quantification of the percentage of GPR17^+ cells that also co-express the indicated oligodendrocyte markers. Total number (n) of GPR17^+ cells counted from two different coverslips for each preparation: for NG2, n = 3502; for O4, n = 2685; for CNPase, n = 1738; for MBP, n = 3615. Data were obtained from five different primary culture preparations.
Primary mixed neuronal/glial cultures from cerebral cortex were obtained from E18 Sprague-Dawley rats according to standard procedures [34]. Pregnant animals were euthanized by cervical dislocation under CO2 anesthesia, and the fetuses removed and put into ice-cold Hanks balanced salt solution. […]

GPR17 = molecular target: T2, GPR17 (Mus musculus, UniProt Q6NS65); assay: Permanent MCAo focal cerebral ischemia, brain infarct size by MRI; format: in vivo
T2 construct: from tissue; host or cells: brain of living male CD1 mice after permanent MCAo
Description: To address this issue, 6 mice received an anti-sense oligonucleotide (616) specifically designed to knock down this receptor in vivo. Animals were injected intracerebroventricularly 20 min and 24 h after MCAo. […] Another group of 6 animals received in parallel a “scrambled” oligonucleotide randomly generated on the basis of the nucleotide sequence of 616. This group of animals was utilized as a control group in this set of experiments. […] The evolution of ischemic damage was followed longitudinally in living animals by Magnetic Resonance Imaging (MRI) at 2, 24 and 48 h after MCAo.
Images were taken from the same animals at 2, 24 and 48 h after MCAo. […] (B) Quantitative analysis of infarct size volume at 24 and 48 hours after MCAo in mice receiving Scr, 616 or Can (mean of 6 animals/group). Data are expressed as percentage variation of infarct volume at 24 and 48 h after MCAo compared to 2 h considered as 100% (see also MATERIALS AND METHODS).
Male CD1 mice (Charles River, Calco, Italy) weighing 20–25 g, after intraperitoneally anesthetized with ketamine (0.1 mg/kg) and xylazine (0.02 mg/kg), underwent permanent MCAo, as previously described [35]. […]

[2] = UDP-glucose 100 µM, LTD4 100 nM

T1 sequence (Q6NS65 whole entry): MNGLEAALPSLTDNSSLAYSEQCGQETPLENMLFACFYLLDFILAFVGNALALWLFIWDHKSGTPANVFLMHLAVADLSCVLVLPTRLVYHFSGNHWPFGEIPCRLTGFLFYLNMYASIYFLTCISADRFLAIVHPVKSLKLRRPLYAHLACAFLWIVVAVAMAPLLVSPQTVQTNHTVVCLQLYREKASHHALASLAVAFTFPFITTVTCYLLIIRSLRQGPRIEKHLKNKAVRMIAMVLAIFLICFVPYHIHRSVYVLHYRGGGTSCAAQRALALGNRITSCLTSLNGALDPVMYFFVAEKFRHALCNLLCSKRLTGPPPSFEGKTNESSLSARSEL
T2 sequence (Q6NS65 whole entry): as above

Structure (SMILES): CCCCC/C=C\C\C=C/C=C/C=C/[C@@H](SC[C@H](NC(=O)CC[C@H](N)C(=O)O)C(=O)NCC(=O)O)[C@@H](O)CCCC(=O)O [LTC4]
- EC50 (mGPR17): 0.74 ± 0.2 nM

Structure (SMILES): CCCCC/C=C\C\C=C/C=C/C=C/[C@@H](SC[C@H](N)C(=O)NCC(=O)O)[C@@H](O)CCCC(=O)O [LTD4]
- EC50 (mGPR17): 0.63 ± 0.1 nM
- number of GPR17+ precursor cells [1, 2]: significantly increased
- number of mature MBP+ oligodendroglial cells [1, 2]: significantly increased

Structure (SMILES): CCCCC/C=C\C\C=C/C=C/C=C/[C@@H](SC[C@H](N)C(=O)O)[C@@H](O)CCCC(=O)O [LTE4]
- EC50 (mGPR17): 0.31 ± 0.09 nM

Second part, led by results:

- EC50 (mGPR17): 55 ± 6.2 nM
Structure (SMILES): O=c1ccn([C@@H]2O[C@H](COP(=O)(O)OP(=O)(O)O)[C@@H](O)[C@H]2O)c(=O)[nH]1 [UDP]

- IC50 (mGPR17; membranes of 1321N1 cells expressing mGPR17, 10 min pre-incubation, 500 nM UDP, read-out: IC50, inhibition of GTPγS binding stimulated by UDP): 1.2 ± 0.3 nM
- ischemic infarct volume at 2 h after MCAo (GPR17; i.c.v. treatment 20 min after MCAo, 6 animals/group, no significant differences between groups): 16.4±4.23 mm^3
Structure (SMILES): CSCCNc1nc(SCCC(F)(F)F)nc2c1ncn2[C@@H]1O[C@H](COP(=O)(O)OP(=O)(O)C(Cl)(Cl)P(=O)(O)O)[C@@H](O)[C@H]1O [Cangrelor]
- effect on UDP-glucose-induced increase of GPR17+ and MBP+ cells ([1]; 10 µM antagonist with 100 µM UDP-glucose): partially counteracted
- progression of ischemic damage (brain infarct volume) at 24 and 48 h vs 2 h (GPR17; cangrelor 1.125 µg/animal i.c.v. 20 min after MCAo, oligonucleotides 10 µg/animal i.c.v. 20 min and 24 h after MCAo): totally abolished
